Measurements from patent US20250353819A1, “ARYL HYDANTOIN COMPOUNDS AND METHODS OF USE” (priority 2022, published 2025).
“And” between values parts separate entries of the source, which are not always exact repeats. Equal entries are not always repeated. Where two headings read alike, the source gives them in different places.

Tests used:
LAPC4 cells = assay: Androgen-dependent cell-based assay (DHT, LAPC4); conditions: for IC50: Homo sapiens, DHT-induced, androgen-dependent LAPC4 prostate cancer cell line, read-out: LAPC4 IC50
Protocol: Androgen-Dependent Cell-based Assay. As described by Jones and Diamond (2008), LAPC4 cells were cultured in phenol red free RPMI 1640 media supplemented with antibiotics and 10% FBS. […] […] Mean-effect plots (log[compound] vs. log[fractional effect]) were generated to determine the IC50 values for each test compound or combinations of test compounds at constant ratios.

[1] = Kinetic solubility (nephelometry); format: physicochemical; conditions: aqueous buffer, kinetic from dmso stock; kinetic solubility, pH 6.5 phosphate buffer; read-out: Sol6.5
Protocol: Kinetic Solubility. Compounds in DMSO (10 mg/mL) were diluted into either pH 6.5 phosphate buffer or 0.01 M HCl (approx. pH 2.0) with the final DMSO concentration being 1%. Samples were then analysed via nephelometry to determine a solubility range (Bevan and Lloyd, 2000).

[2] = Stability in dog cryopreserved hepatocytes; format: in vitro ADME; conditions: for CLint: Dog cryopreserved hepatocytes
[3] = Plasma protein binding (rapid equilibrium dialysis), human plasma; format: in vitro ADME; conditions: for fraction unbound: human, plasma, read-out: % bound (converted)
[4] = Plasma protein binding, mouse plasma; format: in vitro ADME; conditions: for fraction unbound: mouse, plasma, read-out: % bound (converted)
[5] = Whole blood-to-plasma ratio, rat; format: in vitro ADME
Protocol: As part of the assessment of the IV pharmacokinetics, an additional blood sample was collected from each rat at 1 h post dose for the purposes of determining the whole blood-to-plasma (B/P) ratio. Arterial blood was collected into tubes containing heparin. The haematocrit was determined via centrifugation (13000×g for 4 min using a Clemets® Microhematocrit centrifuge and Safecap® Plain Self-sealing Mylar Wrapped capillary tubes), and values ranged from 41% to 42%. Each blood aliquot ([…]) was collected and matrix matched with an equivalent volume of blank plasma. The remainder of the blood sample was centrifuged and […] plasma aliquot was collected and matrix matched with an equivalent volume of blank blood. Samples were frozen on dry ice and stored at −80° C. until analysis by LC-MS.

CYP 2C19 = CYP 2C19 (Homo sapiens (Human), UniProt P33261); assay: CYP inhibition in human liver microsomes, 2C19; format: in vitro ADME
LogD7.4 (shake flask) = conditions: pH 7.4
[6] = Whole blood-to-plasma ratio, mouse
CYP 2C9 = CYP 2C9 (Homo sapiens (Human), UniProt P11712); assay: CYP inhibition in human liver microsomes, 2C9
CYP 2D6 = CYP 2D6 (Homo sapiens (Human), UniProt P10635); assay: CYP inhibition in human liver microsomes, 2D6
androgen-receptor = assay: DHT-induced (KLK3, FKBP5) and DHT-repressed (ZFP36L1) transcripts in LAPC4 cells; format: cell-based; conditions: Compound IE up to 10 μM
adult S. mansoni = assay: ex vivo exposure of adult S. mansoni; design: species or system Schistosoma mansoni; conditions: S. mansoni worms exposed ex vivo
Description: Without wishing to be bound to any particular theory, it is believed that the activity of the disclosed compounds is mediated at least in part by a host effect.

S. haematobium = S. haematobium infections in hamsters; format: in vivo; conditions: single 50 mg/kg oral dose
S. japonicum = S. japonicum infections in hamsters; format: in vivo
[7] = In vitro metabolic stability, dog microsomes; format: in vitro ADME; conditions: liver microsomes
Protocol: In Vitro Metabolic Stability. As described by Charman et al. (2020), metabolic stability assays were performed by incubating test compounds in liver microsomes at 37° C. and 0.4 mg/mL protein concentration. The metabolic reaction was initiated by the addition of an NADPH-regenerating system and quenched at various time points over a 60 min incubation period by the addition of acetonitrile containing diazepam as internal standard. Control samples (containing no NADPH) were included (and quenched at 2, 30 and 60 min) to monitor for potential degradation in the absence of cofactor.

Photostability = format: physicochemical; conditions: 500 μg/mL in 50% aq. MeOH, simulated confirmatory and forced degradation sunlight conditions
Protocol: MeOH also was evaluated under simulated confirmatory and forced degradation sunlight conditions.

[8] = Whole blood to plasma partitioning, human; format: in vitro ADME
in vivo = assay: in vivo; design: species or system dog; conditions: for clearance: read-out: Plasma CL; for AUC(0-t): read-out: mean AUClast; for C0: read-out: mean plasma concentration extrapolated to time zero (C0); for MTD: Beagle dogs, read-out: maximum tolerated dose (MTD); for NOAEL: male and female Beagle dogs, read-out: no observed adverse effect level (NOAEL)
Protocol: The same 2M/2F dogs were used following 2-week washout periods for each dose level in escalation order. This was a survival study and animals were not sacrificed. The following parameters were evaluated: mortality/morbidity, clinical observations, body weights, plasma drug levels, pharmacokinetics and clinical pathology (hematology, coagulation and serum chemistry).

Binding to HLM = conditions: human liver microsomes
[9] = beagle, dog, in vivo, female dogs, iv 1 mg/kg
[10] = beagle, dog, in vivo, male dogs, iv 1 mg/kg
[11] = both sexes, dog, in vivo, single po administration

CYP 2C19, sequence (P33261 whole entry): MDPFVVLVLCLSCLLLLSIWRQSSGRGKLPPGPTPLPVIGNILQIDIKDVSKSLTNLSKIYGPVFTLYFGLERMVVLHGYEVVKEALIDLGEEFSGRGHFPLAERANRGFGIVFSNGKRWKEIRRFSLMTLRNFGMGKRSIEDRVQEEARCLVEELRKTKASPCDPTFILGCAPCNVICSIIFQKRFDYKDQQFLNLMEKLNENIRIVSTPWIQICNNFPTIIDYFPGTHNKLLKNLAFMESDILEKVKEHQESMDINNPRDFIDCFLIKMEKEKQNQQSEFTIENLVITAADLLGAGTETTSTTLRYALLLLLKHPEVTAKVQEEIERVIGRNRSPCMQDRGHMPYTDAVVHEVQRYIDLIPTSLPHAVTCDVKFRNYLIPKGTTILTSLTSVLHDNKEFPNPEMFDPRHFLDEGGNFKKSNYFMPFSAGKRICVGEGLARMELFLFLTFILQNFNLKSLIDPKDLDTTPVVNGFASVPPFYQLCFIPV
CYP 2C9, sequence (P11712 whole entry): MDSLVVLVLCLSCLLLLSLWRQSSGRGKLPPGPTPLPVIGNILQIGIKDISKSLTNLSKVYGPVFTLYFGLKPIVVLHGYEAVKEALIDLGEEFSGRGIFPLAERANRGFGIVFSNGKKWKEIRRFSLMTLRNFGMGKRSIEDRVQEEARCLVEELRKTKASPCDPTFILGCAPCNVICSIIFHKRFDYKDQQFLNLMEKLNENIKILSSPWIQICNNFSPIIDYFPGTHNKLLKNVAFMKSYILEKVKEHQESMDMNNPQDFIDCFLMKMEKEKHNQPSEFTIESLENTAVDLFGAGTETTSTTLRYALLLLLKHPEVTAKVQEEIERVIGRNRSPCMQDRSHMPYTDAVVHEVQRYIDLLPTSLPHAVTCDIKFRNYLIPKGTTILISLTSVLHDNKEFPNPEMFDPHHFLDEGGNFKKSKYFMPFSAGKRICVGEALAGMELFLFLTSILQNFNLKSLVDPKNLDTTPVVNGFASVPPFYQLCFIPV
CYP 2D6, sequence (P10635 whole entry): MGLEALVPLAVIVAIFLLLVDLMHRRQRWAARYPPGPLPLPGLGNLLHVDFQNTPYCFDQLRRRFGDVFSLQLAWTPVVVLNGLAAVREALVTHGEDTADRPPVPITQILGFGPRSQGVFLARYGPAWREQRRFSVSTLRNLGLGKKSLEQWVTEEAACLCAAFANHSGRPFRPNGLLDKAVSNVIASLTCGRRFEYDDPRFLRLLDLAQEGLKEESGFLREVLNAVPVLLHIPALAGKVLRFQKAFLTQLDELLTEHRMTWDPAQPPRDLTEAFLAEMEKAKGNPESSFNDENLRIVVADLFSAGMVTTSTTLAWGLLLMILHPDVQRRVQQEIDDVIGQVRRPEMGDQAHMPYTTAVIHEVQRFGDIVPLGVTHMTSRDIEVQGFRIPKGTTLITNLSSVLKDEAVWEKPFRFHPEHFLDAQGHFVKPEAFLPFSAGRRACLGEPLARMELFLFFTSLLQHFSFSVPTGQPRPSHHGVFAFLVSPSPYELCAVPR

With `CC1(C)NC(=O)N(c2ccc(F)c(C(C)(F)F)c2)C1=O` [Compound IC, 3-(3-(1,1-difluoroethyl)-4-fluorophenyl)-5,5-dimethylimidazolidine-2,4-dione] the IC50 (LAPC4 cells) was over 100 µM, the solubility kinetic [1] was over 100 µg/mL and the CLint [2] was under 1.9 μL/min/10^6. The fraction unbound [3] was 0.34, the fraction unbound [4] was 0.38 and the “B:P” value [5] was 1.2. For the same molecule, the IC50 (CYP 2C19) was over 20 µM, the “LogD7.4 (shake flask)” value (LogD7.4 (shake flask)) was 2.1 and the logD (LogD7.4 (shake flask)) was 2.1. For the same molecule, the “B:P” value [6] was 0.95, the IC50 (CYP 2C9) was over 20 µM and the IC50 (CYP 2D6) was over 20 µM.

For `[2H]C([2H])([2H])C1(C([2H])([2H])[2H])NC(=O)N(c2ccc(F)c(C(C)(F)F)c2)C1=O` [Compound IE, 3-(3-(1,1-difluoroethyl)-4-fluorophenyl)-5,5-bis(methyl-d3)imidazolidine-2,4-dione], the IC50 (LAPC4 cells) was over 100 µM, the “inhibition of DHT-induced cell proliferation” value (LAPC4 cells; concentrations up to 100 μM) was “did not inhibit” and the “levels of DHT-induced (KLK3, FKBP5) and DHT-repressed (ZFP36L1) transcripts” value (androgen-receptor) was “no effect”. The “changes via transcriptomic and ultraresolution microscopy” value (adult S. mansoni) was “no significant changes”, the “clearance of S. haematobium infections” value (S. haematobium) was “completely cleared” and the ED50 (S. japonicum; Schistosoma japonicum, oral) was 8.5 mg/kg. For the same molecule, the “clearance of S. japonicum infections” value (S. japonicum; single 25 mg/kg oral dose) was “completely cleared”, the microsomal CLint [7] was under 7 µL/min/mg and the “loss of parent compound (photostability)” value (Photostability) was under 3%. The CLint [2] was under 2 μL/min/10^6, the hepatocyte CLint ([2]; dog cryopreserved hepatocytes, read-out: in vitro CLint) was under 2000 µL/min/1e6 cells and the “% bound” value [3] was 63%. For the same molecule, the fraction unbound [3] was 0.367, the “% bound” value [4] was 54% and the fraction unbound [4] was 0.462. For the same molecule, the “B:P” value [8] was 0.78±0.035 and 0.78, the “B:P” value [5] was 1.0 and the IC50 (CYP 2C19; 2C19, read-out: CYP inhibition IC50) was over 20 µM. The CYP inhibition (CYP 2C19; CYP 2C19, concentrations up to 20 μM, human liver microsomes) was “did not inhibit”, the AUC (in vivo; beagle, dog, in vivo, female dogs (n = 2), IV 1 mg/kg, read-out: Plasma AUCIV 0-last) was 405 µg·h/mL and the clearance (in vivo; beagle, dog, in vivo, female dogs (n = 2), IV 1 mg/kg) was 1.92 mL/h/kg. For the same molecule, the AUC (in vivo; beagle, dog, in vivo, female dogs (n = 2), PO 15 mg/kg, read-out: Plasma AUCoral 0-last) was 7030 µg·h/mL, the Cmax (in vivo; beagle, dog, in vivo, female dogs (n = 2), PO 15 mg/kg, read-out: Plasma Cmax) was 42700 ng/mL and the AUC(0-t) (in vivo; [9]) was 377 µg·h/mL. The Cmax (in vivo; beagle, dog, in vivo, female dogs, iv 1 mg/kg, read-out: mean peak plasma concentration (Cmax)) was 12500 ng/mL, the C0 (in vivo; [9]) was 18800 ng/mL and the AUC (in vivo; beagle, dog, in vivo, male dogs (n = 2), IV 1 mg/kg, read-out: Plasma AUCIV 0-last) was 526 µg·h/mL. It also gave a clearance (in vivo; beagle, dog, in vivo, male dogs (n = 2), IV 1 mg/kg) of 1.44 mL/h/kg, an AUC (in vivo; beagle, dog, in vivo, male dogs (n = 2), PO 15 mg/kg, read-out: Plasma AUCoral 0-last) of 8800 µg·h/mL and a Cmax (in vivo; beagle, dog, in vivo, male dogs (n = 2), PO 15 mg/kg, read-out: Plasma Cmax) of 51900 ng/mL. It also gave an AUC(0-t) (in vivo; [10]) of 485 µg·h/mL, a Cmax (in vivo; beagle, dog, in vivo, male dogs, iv 1 mg/kg, read-out: mean peak plasma concentration (Cmax)) of 6880 ng/mL and a C0 (in vivo; [10]) of 9460 ng/mL. For the same molecule, the Tmax (in vivo; both sexes, beagle, dog, in vivo, dogs, po dose groups 15, 75, 150 mg/kg, read-out: time of peak plasma concentrations (Tmax)) was 0.25 to 24 h, the MTD (in vivo; both sexes, dog, in vivo, 1 mg/kg, single iv administration) was over 1 mg/kg and the MTD (in vivo; [11]) was over 150 mg/kg. For the same molecule, the NOAEL (in vivo; both sexes, dog, in vivo, single iv administration) was at least 1 mg/kg, the NOAEL (in vivo; [11]) was at least 150 mg/kg and the “Bioavailability, determined using AUClast” value (in vivo; both, beagle, dog, in vivo, po) was “greater than 100%”. The “increase in AUClast, 150 mg/kg compared to mid-dose” value (in vivo; both, beagle, dog, in vivo, po, 150 mg/kg) was 2-3 fold, the PlasmaVSS (in vivo; female, beagle, dog, in vivo, iv, 1 mg/kg) was 0.45 L/kg and the half-life (in vivo; female, beagle, dog, in vivo, iv, 1 mg/kg, female dogs (n = 2), IV 1 mg/kg, read-out: Apparent t1/2 (converted)) was 123 h. The half-life (in vivo; female, beagle, dog, in vivo, iv, 1 mg/kg, female dogs, iv 1 mg/kg, read-out: mean elimination phase half-life (t1/2) (converted)) was 152 h, the “BA based on AUC0-last” value (in vivo; female, beagle, dog, in vivo, po, 15 mg/kg) was 115% and the half-life (in vivo; female, beagle, dog, in vivo, po, 150 mg/kg, female dogs, po 150 mg/kg, read-out: mean t1/2 (converted)) was 402 h. The “Apparent t1/2” value (in vivo; male dogs (n = 2), PO 15 mg/kg) was 237 h, the PlasmaVSS (in vivo; male, beagle, dog, in vivo, iv, 1 mg/kg) was 0.36 L/kg and the half-life (in vivo; male, beagle, dog, in vivo, iv, 1 mg/kg, male dogs (n = 2), IV 1 mg/kg, read-out: Apparent t1/2 (converted)) was 155 h. For the same molecule, the half-life (in vivo; male, beagle, dog, in vivo, iv, 1 mg/kg, male dogs, iv 1 mg/kg, read-out: mean elimination phase half-life (t1/2) (converted)) was 167 h, the “BA based on AUC0-last” value (in vivo; male, beagle, dog, in vivo, po, 15 mg/kg) was 111% and the half-life (in vivo; male, beagle, dog, in vivo, po, 15 mg/kg, male dogs (n = 2), PO 15 mg/kg, read-out: Apparent t1/2 (converted)) was 237 h. For the same molecule, the half-life (in vivo; male, beagle, dog, in vivo, po, 75 mg/kg, male dogs, po 75 mg/kg, read-out: mean t1/2 (converted)) was 341 h, the fraction unbound (Binding to HLM) was 1 and the “LogD7.4 (shake flask)” value (LogD7.4 (shake flask)) was 1.9. For the same molecule, the logD (LogD7.4 (shake flask)) was 1.9, the “B:P” value [6] was 1.0 and the CYP inhibition (CYP 2C9; CYP 2C9, concentrations up to 20 μM, human liver microsomes) was “did not inhibit”. The IC50 (CYP 2C9; read-out: CYP inhibition IC50, 2C9) was over 20 µM, the CYP inhibition (CYP 2D6; CYP 2D6, concentrations up to 20 μM, human liver microsomes) was “did not inhibit” and the IC50 (CYP 2D6; read-out: CYP inhibition IC50, 2D6) was over 20 µM.
